Patent US8912329B2 (priority 2009, dated 2014)

How the values were obtained:
[1] = 250 mg oral; cited from earlier work
[2] = system: Mycobacterium tuberculosis laboratory strain H37Rv; assay: Growth inhibition / drug susceptibility testing of M. tuberculosis with MGIT 960 system, compounds combined with ethionamide; type: cell-based; set-up: key to growth inhibition of M. tuberculosis H37Rv (R/I/S): R: Resistance, no effect of combinatorial drug application; I: intermediate; S: sensitive
EthR-VP16 = EthR-VP16 (Mycobacterium bovis, UniProt Q7TVI1); assay: cell-based; set-up: species or system M. bovis; settings: 48 h, read-out: % EthR activity (w/o = 100%); ± std. dev. of the mean (n = 3)
Chain of EthR-VP16 (Q7TVI1 whole entry, looked up): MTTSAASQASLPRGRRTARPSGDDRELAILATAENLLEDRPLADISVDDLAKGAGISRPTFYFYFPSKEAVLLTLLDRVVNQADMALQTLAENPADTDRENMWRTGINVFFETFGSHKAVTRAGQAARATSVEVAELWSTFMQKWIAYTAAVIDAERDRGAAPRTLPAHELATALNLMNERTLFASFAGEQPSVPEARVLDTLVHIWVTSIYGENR

CCc1cc(C(N)=S)ccn1 [Ethionamide, 2-ethylthioiso-nicotinamide, reference compound]
cmax [1]: 2 µg/mL
t1/2 [1]: 2 h
growth inhibition of M. tuberculosis H37Rv (R/I/S) ([2]; ethionamide 0.16 μg/ml alone (Example compound 0 μM)): R
growth inhibition of M. tuberculosis H37Rv (R/I/S) ([2]; ethionamide 0.31 μg/ml alone (Example compound 0 μM)): R
growth inhibition of M. tuberculosis H37Rv (R/I/S) ([2]; ethionamide 0.625 μg/ml alone (Example compound 0 μM)): R
growth inhibition of M. tuberculosis H37Rv (R/I/S) ([2]; ethionamide 1.25 μg/ml alone (Example compound 0 μM)): R
growth inhibition of M. tuberculosis H37Rv (R/I/S) ([2]; ethionamide 2.5 μg/ml alone (Example compound 0 μM)): I
growth inhibition of M. tuberculosis H37Rv (R/I/S) ([2]; ethionamide 5 μg/ml alone (Example compound 0 μM)): S

O=C(COc1ccc(F)cc1)N1CCC(c2ccccc2)C1 (centres unmarked) [Example 15, 2-(4-Fluorophenoxy)-1-(3-phenylpyrrolidin-1-yl)ethan-1-one]
growth inhibition of M. tuberculosis H37Rv (R/I/S) ([2]; Example compound 0.5 μM + ethionamide 0.16 μg/ml): R
growth inhibition of M. tuberculosis H37Rv (R/I/S) ([2]; Example compound 0.5 μM + ethionamide 0.31 μg/ml): R
growth inhibition of M. tuberculosis H37Rv (R/I/S) ([2]; Example compound 0.5 μM + ethionamide 0.625 μg/ml): I
growth inhibition of M. tuberculosis H37Rv (R/I/S) ([2]; Example compound 0.5 μM + ethionamide 1.25 μg/ml): S
growth inhibition of M. tuberculosis H37Rv (R/I/S) ([2]; Example compound 0.5 μM + ethionamide 2.5 μg/ml): S
growth inhibition of M. tuberculosis H37Rv (R/I/S) ([2]; Example compound 0.5 μM + ethionamide 5 μg/ml): S
growth inhibition of M. tuberculosis H37Rv (R/I/S) ([2]; Example compound 0.5 μM, ethionamide 0 μg/ml): R
growth inhibition of M. tuberculosis H37Rv (R/I/S) ([2]; Example compound 1.5 μM + ethionamide 0.16 μg/ml): R
growth inhibition of M. tuberculosis H37Rv (R/I/S) ([2]; Example compound 1.5 μM + ethionamide 0.31 μg/ml): I
growth inhibition of M. tuberculosis H37Rv (R/I/S) ([2]; Example compound 1.5 μM + ethionamide 0.625 μg/ml): I
growth inhibition of M. tuberculosis H37Rv (R/I/S) ([2]; Example compound 1.5 μM + ethionamide 1.25 μg/ml): S
growth inhibition of M. tuberculosis H37Rv (R/I/S) ([2]; Example compound 1.5 μM + ethionamide 2.5 μg/ml): S
growth inhibition of M. tuberculosis H37Rv (R/I/S) ([2]; Example compound 1.5 μM + ethionamide 5 μg/ml): S
growth inhibition of M. tuberculosis H37Rv (R/I/S) ([2]; Example compound 1.5 μM, ethionamide 0 μg/ml): R
growth inhibition of M. tuberculosis H37Rv (R/I/S) ([2]; Example compound 4.5 μM + ethionamide 0.16 μg/ml): R
growth inhibition of M. tuberculosis H37Rv (R/I/S) ([2]; Example compound 4.5 μM + ethionamide 0.31 μg/ml): I
growth inhibition of M. tuberculosis H37Rv (R/I/S) ([2]; Example compound 4.5 μM + ethionamide 0.625 μg/ml): S
growth inhibition of M. tuberculosis H37Rv (R/I/S) ([2]; Example compound 4.5 μM + ethionamide 1.25 μg/ml): S
growth inhibition of M. tuberculosis H37Rv (R/I/S) ([2]; Example compound 4.5 μM + ethionamide 2.5 μg/ml): S
growth inhibition of M. tuberculosis H37Rv (R/I/S) ([2]; Example compound 4.5 μM + ethionamide 5 μg/ml): S
growth inhibition of M. tuberculosis H37Rv (R/I/S) ([2]; Example compound 4.5 μM, ethionamide 0 μg/ml): R
growth inhibition of M. tuberculosis H37Rv (R/I/S) ([2]; Example compound 13.5 μM + ethionamide 0.16 μg/ml): R
growth inhibition of M. tuberculosis H37Rv (R/I/S) ([2]; Example compound 13.5 μM + ethionamide 0.31 μg/ml): I
growth inhibition of M. tuberculosis H37Rv (R/I/S) ([2]; Example compound 13.5 μM + ethionamide 0.625 μg/ml): S
growth inhibition of M. tuberculosis H37Rv (R/I/S) ([2]; Example compound 13.5 μM + ethionamide 1.25 μg/ml): S
growth inhibition of M. tuberculosis H37Rv (R/I/S) ([2]; Example compound 13.5 μM + ethionamide 2.5 μg/ml): S
growth inhibition of M. tuberculosis H37Rv (R/I/S) ([2]; Example compound 13.5 μM + ethionamide 5 μg/ml): S
growth inhibition of M. tuberculosis H37Rv (R/I/S) ([2]; Example compound 13.5 μM, ethionamide 0 μg/ml): R
growth inhibition of M. tuberculosis H37Rv (R/I/S) ([2]; Example compound 40.5 μM + ethionamide 0.16 μg/ml): R
growth inhibition of M. tuberculosis H37Rv (R/I/S) ([2]; Example compound 40.5 μM + ethionamide 0.31 μg/ml): I
growth inhibition of M. tuberculosis H37Rv (R/I/S) ([2]; Example compound 40.5 μM + ethionamide 0.625 μg/ml): S
growth inhibition of M. tuberculosis H37Rv (R/I/S) ([2]; Example compound 40.5 μM + ethionamide 1.25 μg/ml): S
growth inhibition of M. tuberculosis H37Rv (R/I/S) ([2]; Example compound 40.5 μM + ethionamide 2.5 μg/ml): S
growth inhibition of M. tuberculosis H37Rv (R/I/S) ([2]; Example compound 40.5 μM + ethionamide 5 μg/ml): S
growth inhibition of M. tuberculosis H37Rv (R/I/S) ([2]; Example compound 40.5 μM, ethionamide 0 μg/ml): R
growth inhibitory effect of compound alone on M. tuberculosis H37Rv ([2]; compound alone, without ethionamide): do not show any growth inhibitory effect
growth of M. tuberculosis H37Rv in the presence of sub-inhibitory ethionamide concentrations ([2]; ethionamide 0.16 and 5 μg/ml, 0.5 to 40.5 μMol compound): dose-dependently inhibited
remaining activity at 0.5 µM (EthR-VP16): 10.3 ± 1.26%
remaining activity at 1.5 µM (EthR-VP16): 10.3 ± 0.43%
remaining activity at 3 µM (EthR-VP16): 7.81 ± 0.95%
remaining activity at 6 µM (EthR-VP16): 6.01 ± 1.93%
remaining activity at 15 µM (EthR-VP16): 3.21 ± 1.35%
remaining activity at 30 µM (EthR-VP16): 0.77 ± 0.32%
remaining activity at 60 µM (EthR-VP16): 0.86 ± 0.36%
remaining activity at 300 µM (EthR-VP16): 0.89 ± 0.37%
